Measured values taken from ChEMBL document CHEMBL1201862, “PubChem BioAssay data set” (2004).
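Briefly, cells in 96-well plates were exposed to five compound concentrations for 48 h, and endpoints were estimated by linear interpolation. Abbreviation: GI50, concentration required for 50% inhibition of growth.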 Active and inactive are the calls of the source. Cut-off read from the data, not from the text of the source: active = GI50 up to about 1.1 µM and inactive = higher.

Tests used:
Test in all cases: DTP human tumour cell line panel, 48 h
[1] = test system: T47D
[2] = test system: M14
[3] = test system: BT-549
[4] = test system: MOLT-4
[5] = test system: LOX IMVI
[6] = test system: 786-0
[7] = test system: OVCAR-8
[8] = test system: SF-268
[9] = test system: U-251
[10] = test system: HT-29
[11] = test system: NCI-H226
[12] = test system: HOP-92
[13] = test system: COLO 205
[14] = test system: KM12
[15] = test system: EKVX
[16] = test system: SK-MEL-2
[17] = test system: SK-MEL-28
[18] = test system: NCI/ADR-RES
[19] = test system: HCC 2998

Measured: GI50

O=C(O)C1(C(=O)O)CCN(S(=O)(=O)c2ccccc2)CC1
inactive: [1] > 100 µM | [2] > 100 µM | [3] > 100 µM | [4] > 100 µM | [5] > 100 µM | [6] > 100 µM | [7] > 100 µM | [8] > 100 µM | [9] > 100 µM | [10] > 100 µM | [11] > 100 µM | [12] > 100 µM | [13] > 100 µM | [14] > 100 µM | [15] > 100 µM | [16] > 100 µM | [17] > 100 µM | [18] > 100 µM

N#CC(NCCO)=C1C(=O)c2ccccc2C1=O
inactive: [1] > 100 µM | [2] > 100 µM | [3] > 100 µM | [4] > 100 µM | [5] > 100 µM | [6] > 100 µM | [7] > 100 µM | [8] > 100 µM | [9] > 100 µM | [10] > 100 µM | [11] > 100 µM | [12] > 100 µM | [13] > 100 µM | [14] > 100 µM | [15] > 100 µM | [16] > 100 µM | [17] > 100 µM | [18] > 100 µM

COc1ccc(N[S+]([O-])c2ccc(OC)cc2)cc1 (configuration not stated)
inactive: [1] 15.5 µM | [2] > 100 µM | [3] 14.8 µM | [4] 35.4 µM | [5] 17.4 µM | [6] 84.9 µM | [7] 82.2 µM | [8] 6.75 µM | [9] 12.5 µM | [10] 39.9 µM | [11] 55.5 µM | [13] 72.1 µM | [19] 41.3 µM | [14] 7.8 µM | [15] 88.1 µM | [16] 16.9 µM | [17] > 100 µM | [18] 56.6 µM

O=C(O)C(C1NCCS1)N1C(=O)c2ccccc2C1=O (configuration not stated)
inactive: [1] > 100 µM | [2] > 100 µM | [3] > 100 µM | [4] > 100 µM | [5] > 100 µM | [6] > 100 µM | [7] > 100 µM | [8] > 100 µM | [9] > 100 µM | [10] > 100 µM | [11] > 100 µM | [12] > 100 µM | [13] > 100 µM | [14] > 100 µM | [15] > 100 µM | [16] > 100 µM | [17] > 100 µM | [18] > 100 µM

O=C1NC2(CCCCC2)N=C2C(Cl)CCCC12Cl (configuration not stated)
inactive: [1] > 100 µM | [2] > 100 µM | [3] > 100 µM | [4] > 100 µM | [5] > 100 µM | [6] > 100 µM | [7] > 100 µM | [8] > 100 µM | [9] > 100 µM | [10] > 100 µM | [11] > 100 µM | [13] > 100 µM | [19] > 100 µM | [14] > 100 µM | [15] > 100 µM | [16] > 100 µM | [17] > 100 µM | [18] > 100 µM

CC(C)(C)OC(=O)n1c(Cl)c(C=O)c2ccccc21
inactive: [1] 30.6 µM | [2] 34.8 µM | [3] 21.3 µM | [4] 51.8 µM | [5] 26.4 µM | [6] 21 µM | [7] 28.1 µM | [8] 17.9 µM | [9] 35.6 µM | [10] 30.5 µM | [12] 30.9 µM | [13] 56.4 µM | [14] 18.4 µM | [15] 28 µM | [16] 30.1 µM | [17] 39.9 µM | [18] 30.7 µM

O=c1c2cc(Br)ccc2oc2ccc(Br)cc12
inactive: [1] 81.3 µM | [2] > 100 µM | [3] > 100 µM | [4] > 100 µM | [6] 64.7 µM | [7] > 100 µM | [8] > 100 µM | [9] 64.6 µM | [10] > 100 µM | [11] > 100 µM | [12] > 100 µM | [13] > 100 µM | [19] > 100 µM | [14] > 100 µM | [16] > 100 µM | [17] > 100 µM | [18] > 100 µM

NS(=O)(=O)c1ccc(NS(=O)(=O)c2ccc(NC(=O)N(c3ccccc3)c3ccccc3)cc2)cc1
inactive: [1] 48 µM | [2] 41.3 µM | [3] 87.1 µM | [4] 34 µM | [5] 34.4 µM | [6] 68.9 µM | [7] > 100 µM | [8] 64.1 µM | [9] > 100 µM | [10] 57.1 µM | [11] > 100 µM | [12] 51.3 µM | [13] > 100 µM | [14] 60.5 µM | [15] > 100 µM | [16] 48.5 µM | [17] > 100 µM | [18] > 100 µM
